Legend:
Experiment in all cases: relative viability (nuclei count vs DMSO), 5 days (fraction); higher = more cells survive
CUDC-101 = compound: C#Cc1cccc(Nc2ncnc3cc(OC)c(OCCCCCCC(=O)NO)cc23)c1 [CUDC-101]
Procedure, shortened: (§1)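 On vehicle-anchored 1536-well plates, lung cancer cell lines held overnight at 37 °C were pinned with five library-drug doses (not always all listed) spaced by √10. With no medium change over 5 days, they were then fixed, permeabilised and Hoechst-stained in one step and imaged at 4×. MetaXpress counted nuclei, and viability is the median across plates of treated-well over vehicle-well nuclei. Acceptance needed control CV below 25% and at least one doubling.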

[1] = compound: C1=CC=C2C(=C1)N=C(S2)C(C#N)C3=NC(=NC=C3)NCCC4=CN=CC=C4
Procedure, shortened: as §1

NVP-TAE684 = compound: COc1cc(N2CCC(N3CCN(C)CC3)CC2)ccc1Nc1ncc(Cl)c(Nc2ccccc2S(=O)(=O)C(C)C)n1 [NVP-TAE684]
Procedure, shortened: as §1

Vandetanib = compound: COc1cc2/c(=N/c3ccc(Br)cc3F)nc[nH]c2cc1OCC1CCN(C)CC1 [Vandetanib]
Procedure, shortened: as §1

UMC-11
relative viability (CUDC-101; 0.01 µM): 1.03 | relative viability (CUDC-101; 0.03162 µM): 0.957 | relative viability (CUDC-101; 0.1 µM): 0.927 | relative viability (CUDC-101; 0.3162 µM): 0.705 | relative viability (CUDC-101; 1 µM): 0.31 | relative viability ([1]; 0.005 µM): 0.884 | relative viability ([1]; 0.01581 µM): 1.01 | relative viability ([1]; 0.05 µM): 0.96 | relative viability ([1]; 0.1581 µM): 1.16 | relative viability ([1]; 0.5 µM): 0.967 | relative viability (NVP-TAE684; 0.2 µM): 1.04 | relative viability (NVP-TAE684; 0.6325 µM): 0.876 | relative viability (NVP-TAE684; 2 µM): 0.465 | relative viability (Vandetanib; 0.02 µM): 0.94 | relative viability (Vandetanib; 0.06325 µM): 0.901 | relative viability (Vandetanib; 0.2 µM): 0.9 | relative viability (Vandetanib; 0.6325 µM): 0.91 | relative viability (Vandetanib; 2 µM): 0.964

— the supplement of paper PMC10307832
